Measured values: patent US10800786B2, “Bicyclic compounds as ATX inhibitors” (Hoffmann-La Roche Inc., priority 2015, dated 2020)

Each compound was assayed against ATX (human His-tagged) (Homo sapiens (Human), UniProt Q13822) (assay: Human ATX enzyme inhibition assay (fluorescence quenching, MR121 substrate)). Conditions: not given.
Type: biochemical
Protocol: Human Atx Enzyme Inhibition Assay
Assay working solutions were made as follows:
Assay buffer (50 mM Tris-HCl, 140 mM NaCl, 5 mM KCl, 1 mM CaCl2, 1 mM MgCl2, 0.01% Triton-X-100, pH 8.0;
MR121 substrate solution: MR121 substrate stock solution (800 μM MR121 substrate in DMSO), diluted to 2-5× final concentration in assay buffer.
10 μL of MR121 substrate solution was added ([…] final concentration), mixed 30 times and then incubated for 15 minutes at 30° C.

IC50 | SMILES
10 nM | O=C(c1cc(OCC2CCOCC2)nc(C2CC2)c1)N1CC2=C(CC(C(=O)N3CCc4[nH]nnc4C3)C2)C1 [Example 4.01, [2-cyclopropyl-6-(oxan-4-ylmethoxy)pyridin-4-yl]-[5-(1,4,6,7-tetrahydrotriazolo[4,5-c]pyridine-5-carbonyl)-3,4,5,6-tetrahydro-1H-cyclopenta[c]pyrrol-2-yl]methanone]

Same assay, conditions: 30 nM ATX, MR121 substrate, 30° C., pH 8.0; read-out: ATX IC50

IC50 | SMILES
13 nM | O=C1NS(=O)(=O)c2cc(C(=O)N3CC4=C(CN(C(=O)c5cc(OCC6CCOCC6)nc(C6CC6)c5)C4)C3)ccc21 [Example 1.10, 6-[5-[2-cyclopropyl-6-(oxan-4-ylmethoxy)pyridine-4-carbonyl]-1,3,4,6-tetrahydropyrrolo[3,4-c]pyrrole-2-carbonyl]-1,1-dioxo-1,2-benzothiazol-3-one]
7 nM | CC(C)(C)C(=O)Nc1cc(Cl)c(Cl)nc1COC(=O)N1CC2=C(C1)CN(C(=O)c1ccc3[nH]nnc3c1)C2 [Example 1.08, [5,6-dichloro-3-(2,2-dimethylpropanoylamino)pyridin-2-yl]methyl 2-(1H-benzotriazole-5-carbonyl)-1,3,4,6-tetrahydropyrrolo[3,4-c]pyrrole-5-carboxylate]
3 nM | O=C(OCc1ccc(OC(F)(F)F)cc1)N1CC2=C(C1)CN(C(=O)c1ccc3[nH]nnc3c1)C2 [Example 1.05, 4-(trifluoromethoxy)benzyl 5-(1H-benzo[d][1,2,3]triazole-5-carbonyl)-3,4,5,6-tetrahydropyrrolo[3,4-c]pyrrole-2(1H)-carboxylate]
97 nM | O=C(c1cc(OCC2CCOCC2)nc(C2CC2)c1)N1CC2=C(C1)CN(C(=O)N1CCc3onc(O)c3C1)C2 [Example 2.13, [2-cyclopropyl-6-(oxan-4-ylmethoxy)pyridin-4-yl]-[5-(3-hydroxy-6,7-dihydro-4H-[1,2]oxazolo[4,5-c]pyridine-5-carbonyl)-1,3,4,6-tetrahydropyrrolo[3,4-c]pyrrol-2-yl]methanone]
8 nM | Cn1c(=O)[nH]c2ccc(C(=O)N3CC4=C(CN(C(=O)c5cc(OCC6CCOCC6)nc(C6CC6)c5)C4)C3)cc21 [Example 1.01, 6-(5-(2-cyclopropyl-6-((tetrahydro-2H-pyran-4-yl)methoxy)isonicotinoyl)-1,2,3,4,5,6-hexahydropyrrolo[3,4-c]pyrrole-2-carbonyl)-1-methyl-1H-benzo[d]imidazol-2(3H)-one]
6 nM | O=C(c1cc(OCC2CCOCC2)nc(C2CC2)c1)N1CC2=C(C1)CN(C(=O)N1CCc3[nH]nnc3C1)C2 [Example 2.02, [2-cyclopropyl-6-(oxan-4-ylmethoxy)pyridin-4-yl]-[5-(1,4,6,7-tetrahydrotriazolo[4,5-c]pyridine-5-carbonyl)-1,3,4,6-tetrahydropyrrolo[3,4-c]pyrrol-2-yl]methanone]
36 nM | O=C(OCc1c[nH]nn1)N1CC2=C(C1)CN(C(=O)c1cc(OCC3CCOCC3)nc(C3CC3)c1)C2 [Example 3.00, (1H-1,2,3-Triazol-4-yl)methyl 5-(2-cyclopropyl-6-((tetrahydro-2H-pyran-4-yl)methoxy)isonicotinoyl)-3,4,5,6-tetrahydropyrrolo[3,4-c]pyrrole-2(1H)-carboxylate]
122 nM | O=C1NC(=O)N2CCN(C(=O)N3CC4=C(CN(C(=O)c5cc(OCC6CCOCC6)nc(C6CC6)c5)C4)C3)CC12 (centres unmarked) [Example 2.14, 7-[2-[2-cyclopropyl-6-(oxan-4-ylmethoxy)pyridine-4-carbonyl]-1,3,4,6-tetrahydropyrrolo[3,4-c]pyrrole-5-carbonyl]-5,6,8,8a-tetrahydroimidazo[1,5-a]pyrazine-1,3-dione]
1 nM | O=C(c1cc(OCC2CCOCC2)nc(C2CC2)c1)N1CC2=C(CN(Cc3ccc4[nH]c(=O)oc4c3)C2)C1 [Example 5.00, 6-[[5-[2-Cyclopropyl-6-(oxan-4-ylmethoxy)pyridine-4-carbonyl]-1,3,4,6-tetrahydropyrrolo[3,4-c]pyrrol-2-yl]methyl]-3H-1,3-benzoxazol-2-one]
5 nM | CC(C)(C)C(=O)Nc1cc(C(F)(F)F)cnc1COC(=O)N1CC2=C(C1)CN(C(=O)N1CCc3[nH]nnc3C1)C2 [Example 2.00, [3-(2,2-Dimethylpropanoylamino)-5-(trifluoromethyl)pyridin-2-yl]methyl 2-(1,4,6,7-tetrahydrotriazolo[4,5-c]pyridine-5-carbonyl)-1,3,4,6-tetrahydropyrrolo[3,4-c]pyrrole-5-carboxylate]
441 nM | O=C(c1cc(OCC2CCOCC2)nc(C2CC2)c1)N1CC2=C(C1)CN(C(=O)N1CCc3c(n[nH]c3O)C1)C2 [Example 2.12, [2-cyclopropyl-6-(oxan-4-ylmethoxy)pyridin-4-yl]-[5-(3-hydroxy-2,4,5,7-tetrahydropyrazolo[3,4-c]pyridine-6-carbonyl)-1,3,4,6-tetrahydropyrrolo[3,4-c]pyrrol-2-yl]methanone]
10 nM | O=C(c1cc(OCC2CCOCC2)nc(C2CC2)c1)N1CC2=C(C1)CN(C(=O)N1CCc3c(cn[nH]c3=O)C1)C2 [Example 2.08, 6-[2-[2-cyclopropyl-6-(oxan-4-ylmethoxy)pyridine-4-carbonyl]-1,3,4,6-tetrahydropyrrolo[3,4-c]pyrrole-5-carbonyl]-2,5,7,8-tetrahydropyrido[3,4-d]pyridazin-1-one]
5.5 nM | NS(=O)(=O)C1CCN(C(=O)N2CC3=C(CN(C(=O)c4cc(OCC5CCOCC5)nc(C5CC5)c4)C3)C2)CC1 [Example 2.04, 1-[2-[2-cyclopropyl-6-(oxan-4-ylmethoxy)pyridine-4-carbonyl]-1,3,4,6-tetrahydropyrrolo[3,4-c]pyrrole-5-carbonyl]piperidine-4-sulfonamide]
4 nM | O=C(c1cc(OCC2CCOCC2)nc(C2CC2)c1)N1CC2=C(C1)CN(C(=O)c1ccc3c(O)noc3c1)C2 [Example 1.09, [5-[2-cyclopropyl-6-(oxan-4-ylmethoxy)pyridine-4-carbonyl]-1,3,4,6-tetrahydropyrrolo[3,4-c]pyrrol-2-yl]-(3-hydroxy-1,2-benzoxazol-6-yl)methanone]
5 nM | O=C(c1cc(OCC2CCOCC2)nc(C2CC2)c1)N1CC2=C(C1)CN(C(=O)[C@@H]1CCc3[nH]nnc3C1)C2 [Example 1.02, [2-cyclopropyl-6-(oxan-4-ylmethoxy)pyridin-4-yl]-[5-[(5R)-4,5,6,7-tetrahydro-1H-benzotriazole-5-carbonyl]-1,3,4,6-tetrahydropyrrolo[3,4-c]pyrrol-2-yl]methanone]
17 nM | CC(C)(C)C(=O)Nc1cc(C(F)(F)F)cnc1COC(=O)N1CCC2=C(CCN(C(=O)c3ccc4[nH]nnc4c3)C2)C1 [Example 1.07, [3-(2,2-dimethylpropanoylamino)-5-(trifluoromethyl)pyridin-2-yl]methyl 6-(1H-benzotriazole-5-carbonyl)-1,3,4,5,7,8-hexahydro-2,6-naphthyridine-2-carboxylate]
7 nM | CC(C)(C)C(=O)Nc1cc(C(F)(F)F)cnc1COC(=O)N1CC2=C(C1)CN(C(=O)[C@@H]1CCc3[nH]nnc3C1)C2 [Example 1.00, [3-(2,2-Dimethylpropanoylamino)-5-(trifluoromethyl)pyridin-2-yl]methyl 2-[(5R)-4,5,6,7-tetrahydro-1H-benzotriazole-5-carbonyl]-1,3,4,6-tetrahydropyrrolo[3,4-c]pyrrole-5-carboxylate]
8 nM | CC(C)(C)C(=O)Nc1cc(C(F)(F)F)cnc1COC(=O)N1CC2=C(C1)CN(C(=O)c1ccc3[nH]nnc3c1)C2 [Example 1.04, [3-(2,2-dimethylpropanoylamino)-5-(trifluoromethyl)pyridin-2-yl]methyl 2-(1H-benzotriazole-5-carbonyl)-1,3,4,6-tetrahydropyrrolo[3,4-c]pyrrole-5-carboxylate]
3 nM | NS(=O)(=O)C1(F)CCN(C(=O)N2CC3=C(CN(C(=O)c4cc(OCC5CCOCC5)nc(C5CC5)c4)C3)C2)CC1 [Example 6.00, 1-[2-[2-Cyclopropyl-6-(oxan-4-ylmethoxy)pyridine-4-carbonyl]-1,3,4,6-tetrahydropyrrolo[3,4-c]pyrrole-5-carbonyl]-4-fluoropiperidine-4-sulfonamide]
11 nM | Cc1nnn(Cc2cc(C(F)(F)F)ccc2CCC(=O)N2CC3=C(C2)CN(C(=O)c2ccc4[nH]nnc4c2)C3)n1 [Example 1.06, 1-[5-(1H-benzotriazole-5-carbonyl)-1,3,4,6-tetrahydropyrrolo[3,4-c]pyrrol-2-yl]-3-[2-[(5-methyltetrazol-2-yl)methyl]-4-(trifluoromethyl)phenyl]propan-1-one]
5 nM | O=C(c1cc(OCC2CCOCC2)nc(C2CC2)c1)N1CC2=C(C1)CN(C(=O)c1ccc3[nH]nnc3c1)C2 [Example 1.03]
11 nM | NS(=O)(=O)C1CCN(C(=O)C2CC3=C(C2)CN(C(=O)c2cc(OCC4CCOCC4)nc(C4CC4)c2)C3)CC1 [Example 4.00, 1-[2-[2-Cyclopropyl-6-(oxan-4-ylmethoxy)pyridine-4-carbonyl]-3,4,5,6-tetrahydro-1H-cyclopenta[c]pyrrole-5-carbonyl]piperidine-4-sulfonamide]
